Entries after “also recorded” stand apart in the source; their conditions may differ.

The record followed here is US8227470B2, “Combination treatment of solid cancers with antimetabolites and tyrosine kinase inhibitors” (AB Science, priority 2007, dated 2012).

Assay [1] deals with Panc-1. The experiment in a line: WST-1 cell proliferation and viability assay. The class given is cell-based. As for the experimental part: (§1) Pancreatic, colon and prostate cancer cell lines (generous gift from Dr. Juan Iovanna, INSERM U624, Marseille, France), breast and ovarian cancer cell lines (generous gift from Dr. Patrice Dubreuil, UMR 599 INSERM, Marseille, France), and lung cancer cell line (generous gift from Pr. Christian Auclair, UMR 8113 CNRS) were cultured as monolayers in RPMI 1640 medium containing L-glutamine supplemented with 100 U/mL penicillin and 100 μg/mL streptomycin, and 10% v/v heat-inactivated foetal calf serum (AbCys Lot SO2823S1800) under standard culture conditions (5% CO2, 95% air in humidified chamber at 37° C.).
(§2) During proliferation assay, all cells were grown in medium containing 1% FCS.
(§3) Colorimetric cell proliferation and viability assay (reagent WST-1 purchased from Roche cat N° 1644807)
(§4) The cells were washed once and resuspended in RPMI 1% FCS. Cells at 1.10^4/50 μl were plated per well of a 96 well plate.
(§5) Drug dilutions were prepared in a 96 well plate and obtained by sequential dilutions of AB1010 or gemcitabine in RPMI 1.
(§6) Treatment was started by the addition of 50 μl of a 2× concentrated drug solution to a final volume of 100 μl.
(§7) For treatment with combination of AB1010 and gemcitabine, the cells were first resuspended in medium RPMI 1% FCS containing AB1010 at the concentrations of 0, 2, 5 and 10 μM. 1.10^4 cells/50 μl were plated per well of a 96 wells plate and the plates placed in the incubator o/n before treatment with cytotoxic agents. Cytotoxic agent treatment was initiated by addition of 50 μl of a 2× drug dilution (and containing the respective AB1010 drug concentration) to a final volume of 100 μl. AB1010 final concentrations remained 0, 2, 5 and 10 μM. After incubating for 48-72 hours at 37° C., 10 μl of a ½ dilution of WST-1 reagent was added to each well and the plates were returned to the incubator for an additional 4 hours. The absorbance of the samples was measured at 490 nm using an EL800 Universal microplate reader (Bio-Tek Instruments Inc.).
(§8) A background control without cells was used as a blank for the ELISA reader.
(§9) The positive control of the assay corresponds to the cell proliferation obtained in the absence of drug treatment (100% proliferation).
(§10) Each sample was done in duplicate, the absorbance values were transferred to an excel file, the average and standard deviation of the duplicates were calculated and expressed as a percentage of the proliferation obtained in absence of treatment.
(§11) To determine the IC50 concentration of gemcitabine on pancreatic cell lines, the cells were grown in 1% FCS and exposed to different doses of the drug.
(§12) To determine the IC50 concentration of gemcitabine used in association with AB1010, pancreatic cell lines grown in 1% FCS were pre-treated with AB1010 for about 12-16 hours before being exposed to different doses of the gemcitabine.
A general note: Tetrazolium dyes change colour on reduction, which living cells bring about.

In assay [2] the test system is Capan-2. The assay is described as follows: WST-1 cell proliferation and viability assay. The class given is cell-based. The method, then: as §1, §2, §3, §4, §5, §6, §7, §8, §9, §10, §11, §12
The test system of assay [3] is BxPC-3. The assay is described as follows: WST-1 cell proliferation and viability assay. The format is cell-based. The method, then: as §1, §2, §3, §4, §5, §6, §7, §8, §9, §10, §11, §12
In assay [4] the target is T1, FAK kinase (Homo sapiens, UniProt Q05397). The experiment in a line: SelectScreen kinase Profiling (Invitrogen), purified kinases. The format is biochemical. Conditions: inhibitor at 1 μM (1,000 nM); for inhibition at 1 µM: read-out: Percentage of inhibition of FAK kinase activity.
The subject of assay [5] is Mia Paca-2. The experiment in a line: WST-1 cell proliferation and viability assay. The class given is cell-based. As to conditions: for sensitization to gemcitabine by pre-treatment: MiaPaca-2, pre-treatment 12-16 hours (AB1010 5 and 10 μM; STI571 up to 10 μM) before gemcitabine. The method, then:
as §1, §2, §3, §4, §5, §6
as §7, with “AB1010 final concentrations remained 0, 2, 5 and 10 μM. After incubating for 48-72 hours at 37° C., 10 μl of a ½ dilution of WST-1 reagent was added to each well and the plates were returned to the incubator for an additional 4 hours.” left out
A background control without cells was used as a blank for the ELISA reader. […]
(§13) Each sample was done in duplicate, the absorbance values were transferred to an excel file, the average and standard deviation of the duplicates were calculated and expressed as a percentage of the proliferation obtained in absence of treatment. […]

The subject of assay [6] is human mast cell line expressing the JMΔ27 mutated c-kit. The assay is described as follows: Apoptosis induction in mast cell line. The class given is cell-based. As to conditions: 0.1 μM, after 48 hours; control cells 10% apoptotic. As for the experimental part: (§14) In this experiment, after 48 hours, 0.1 μM AB1010 induced apoptosis of approximately 50% versus control cells in which 10% of cells were apoptotic. In addition, a separate cell line (Ba/F3-derived) expressing JMΔ27 was tested and apoptosis was induced to a level of approximately 85%.

Assay [7] concerns ovarian tumour cell lines. The assay is described as follows: WST-1 proliferation assay, ovarian lines with paclitaxel. The format is cell-based. The method, then:
as §1, §2, §3
(§15) The cells were washed once and resuspended in RPMI 1% FCS. […]
(§16) For treatment with combination of AB1010 and gemcitabine, the cells were first resuspended in medium RPMI 1% FCS containing AB1010 at the concentrations of 0, 2, 5 and 10 μM. […] The absorbance of the samples was measured at 490 nm using an EL800 Universal microplate reader (Bio-Tek Instruments Inc.).
as §13

The test system of assay [8] is breast tumour cell lines. The experiment in a line: WST-1 proliferation assay, breast lines with docetaxel. The class given is cell-based. The method, then:
as §1, §2, §3, §15, §16, §13

Assay [9] deals with cell line (Ba/F3-derived) expressing JMΔ27. The assay is described as follows: Apoptosis induction in Ba/F3-derived cell line. The format is cell-based. The method, then:
as §14

Assay [10] has as its target T1, FAK kinase. The experiment in a line: Western blot of FAK activation status (anti PY / anti phospho FAK). As to conditions: FIG. 3B. The class given is cell-based. The text has this: Pancreatic tumour cells lines are described to express high level of the non-receptor tyrosine kinase FAK that contributes to resistance to gemcitabine. […] By the use of either anti PY or anti phospho FAK antibodies, we studied by western blot assay the activation status of FAK kinase.
Background: In western blotting, separated proteins are transferred to a membrane and probed.

For assay [11], the system named is HRT-18. The experiment in a line: WST-1 proliferation assay, sensitization to Irinotecan. The class given is cell-based. Conditions: most resistant colorectal cell line HRT-18; AB1010 pre-treatment. The method, then:
as §1, §2, §3, §4
[…] The absorbance of the samples was measured at 490 nm using an EL800 Universal microplate reader (Bio-Tek Instruments Inc.).
as §13

Assay [12] deals with ovarian OVCAR-3 cell lines. The assay is described as follows: WST-1 proliferation assay, sensitization to gemcitabine. The format is cell-based. Conditions: AB1010 pre-treatment. As for the experimental part: as §1, §2, §3, §4, §7, §10
(§17) In order to evaluate the ability of AB1010 to sensitize other tumour types to gemcitabine, we performed similar studies on prostate, lung, ovarian and colon tumour cell lines.

The test system of assay [13] is lung A549 and H1299 cell lines. The assay is described as above. The format is cell-based. Conditions: AB1010 pre-treatment. The method, then: as §1, §2, §3, §4, §7, §10, §17
In assay [14] the test system is prostate DU145, and C4-2 cell lines. The assay is described as above. The format is cell-based. As to conditions: AB1010 pre-treatment. As for the experimental part:
as §1, §2, §3, §4, §7, §10, §17

The subject of assay [15] is rectum HRT-18, and colon Caco-2 and SW-480 cell lines. Described as above. The class given is cell-based. As to conditions: rectum HRT-18, colon Caco-2 and SW-480; AB1010 pre-treatment. The method, then:
as §1, §2, §3, §4, §7, §10, §17

Assay [16] deals with colon HT-29. The description is as above. The class given is cell-based. As to conditions: colon HT-29, the one resistant line in which sensitivity was not restored. As for the experimental part: as §1, §2, §3, §4, §7, §10, §17

T1 sequence (Q05397 whole entry): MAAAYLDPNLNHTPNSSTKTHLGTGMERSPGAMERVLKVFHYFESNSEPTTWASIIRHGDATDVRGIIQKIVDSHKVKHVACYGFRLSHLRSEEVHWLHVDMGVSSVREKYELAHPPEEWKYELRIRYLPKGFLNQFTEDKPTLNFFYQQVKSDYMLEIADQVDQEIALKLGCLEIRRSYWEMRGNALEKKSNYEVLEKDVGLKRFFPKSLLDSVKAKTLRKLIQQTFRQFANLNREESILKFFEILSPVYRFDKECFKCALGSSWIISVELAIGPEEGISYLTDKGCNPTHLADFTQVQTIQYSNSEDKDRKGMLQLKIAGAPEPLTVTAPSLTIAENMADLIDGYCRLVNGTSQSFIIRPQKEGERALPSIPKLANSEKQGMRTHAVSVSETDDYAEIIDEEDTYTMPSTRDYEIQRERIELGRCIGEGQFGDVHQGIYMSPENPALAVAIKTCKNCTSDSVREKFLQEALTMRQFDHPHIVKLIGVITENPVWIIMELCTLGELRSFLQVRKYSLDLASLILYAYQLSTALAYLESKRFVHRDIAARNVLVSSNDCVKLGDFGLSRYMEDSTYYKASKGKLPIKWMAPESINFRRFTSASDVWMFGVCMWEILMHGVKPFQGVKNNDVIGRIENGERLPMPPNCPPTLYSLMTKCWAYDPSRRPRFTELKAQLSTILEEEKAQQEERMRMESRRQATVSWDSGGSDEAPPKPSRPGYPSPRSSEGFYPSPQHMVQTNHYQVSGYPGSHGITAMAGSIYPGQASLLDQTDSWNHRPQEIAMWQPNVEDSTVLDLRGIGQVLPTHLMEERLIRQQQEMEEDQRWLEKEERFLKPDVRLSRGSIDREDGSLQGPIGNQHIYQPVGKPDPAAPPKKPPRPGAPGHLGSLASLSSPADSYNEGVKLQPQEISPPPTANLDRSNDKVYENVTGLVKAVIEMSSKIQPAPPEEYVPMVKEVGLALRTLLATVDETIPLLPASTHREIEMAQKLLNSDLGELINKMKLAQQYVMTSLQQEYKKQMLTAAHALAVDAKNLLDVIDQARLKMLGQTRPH

`Cc1ccc(NC(=O)c2ccc(CN3CCN(C)CC3)cc2)cc1Nc1nc(-c2cccnc2)cs1` [AB1010, 4-(4-Methyl-piperazin-1-ylmethyl)-N-[4-methyl-3-(4-pyridin-3-yl-thiazol-2-ylamino)-phenyl]-benzamide]: the “sensitization to gemcitabine by pre-treatment” value in [1] (Panc-1, AB1010 5 and 10 μM pre-treatment 12-16 hours before gemcitabine) was “reverse resistance”; in assay [2] (gemcitabine-sensitive Capan-2, AB1010 pre-treatment), “not observed”; in [3] (gemcitabine-sensitive BxPC-3, AB1010 pre-treatment), “not observed”; in [5] it was “reverse resistance”. Further, the inhibition at 1 µM in assay [4] was determined as 21%. Moreover, the apoptosis induced entry in assay [6] is “approximately 50%”; in assay [9] it was “approximately 85%”. The “restoration of sensitivity to Paclitaxel” value in assay [7] (resistant ovarian tumour cell lines, AB1010 pre-treatment) is given as “restores sensitivity”. In addition, the sensitization to docetaxel entry in assay [8] (docetaxel-resistant breast cancer cell lines, AB1010 pre-treatment) is “good sensitization by AB1010 for 6 out of 11”. Besides, in [10], the “inhibition of FAK autoactivation” value is on record as “inhibits partially”. In addition, the “sensitization to Irinotecan (CPT-11)” value in assay [11] is reported as “good sensitization”. For the same compound, the sensitization to gemcitabine entry is “AB1010 sensitizes ovarian OVCAR-3 cell lines to gemcitabine” in assay [12]; “AB1010 sensitizes lung A549 and H1299 cell lines to gemcitabine” in assay [13]; “AB1010 sensitizes prostate DU145, and C4-2 cell lines to gemcitabine” in assay [14]; “AB1010 sensitizes rectum HRT-18, and colon Caco-2 and SW-480” in assay [15]. In [16], the “restoration of sensitivity to gemcitabine” value is given as “except one”.
For `CC(=O)O[C@@]12CO[C@@H]1C[C@H](O)[C@@]1(C)C(=O)[C@H](O)C3=C(C)[C@@H](OC(=O)[C@H](O)[C@@H](NC(=O)OC(C)(C)C)c4ccccc4)C[C@@](O)([C@@H](OC(=O)c4ccccc4)[C@H]21)C3(C)C` [Docetaxel, reference compound], the “sensitivity to Docetaxel” value in [8] (breast cancer cell lines, drug alone) is recorded as “most of the breast cancer cell lines tested exhibit resistance”.
On to `CC(C)(C)n1nc(-c2ccc(Cl)cc2)c2c(N)ncnc21` [PP2], for which the “Percentage of inhibition of FAK kinase activity” value in [4] was found to be 75%.
With `CC(=O)O[C@H]1C(=O)[C@@]2(C)[C@H]([C@H](OC(=O)c3ccccc3)[C@]3(O)C[C@H](OC(=O)[C@H](O)[C@@H](NC(=O)c4ccccc4)c4ccccc4)C(C)=C1C3(C)C)[C@]1(OC(C)=O)CO[C@@H]1C[C@@H]2O` [Paclitaxel, reference compound], the “sensitivity to Paclitaxel” value in assay [7] (five ovarian cell lines, drug alone) is recorded as “Three out of the five ovarian cell lines tested exhibit strong sensitivity”.
As for `Cc1ccc(NC(=O)c2ccc(CN3CCN(C)CC3)cc2)cc1Nc1nccc(-c2cccnc2)n1` [STI571], the inhibition at 1 µM in assay [4] amounted to 9%. Besides, the “sensitization to gemcitabine by pre-treatment” value in assay [5] is on record as “does not sensitize; also recorded: does not lead to the same result”.
Consider `Nc1ccn(C2OC(CO)C(O)C2(F)F)c(=O)n1` (stereo not shown) [gemcitabine, 4-amino-1-[3,3-difluoro-4-hydroxy-5-(hydroxymethyl)tetrahydrofuran-2-yl]-1H-pyrimidin-2-one, reference compound], for which the sensitivity to gemcitabine entry in [1] (Panc-1, 1% FCS, drug alone) is reported as “lack of sensitivity”; in assay [5] (Mia Paca-2, 1% FCS, drug alone), “lack of sensitivity”. Further, the IC50 in assay [2] (Homo sapiens, Capan-2, 1% FCS, drug alone, read-out: IC50, inhibition of proliferation) was in the range of 0.002 to 0.02 µM; in assay [3] (Homo sapiens, BxPC-3, 1% FCS, drug alone, read-out: IC50, inhibition of proliferation), 0.002 to 0.02 µM.

A word on the inhibition: it is the relative decrease from the control value, in per cent.
